What all share (format): cell-based
The target of test [1] is T1, human AT1R (Homo sapiens, UniProt P30556).
T1 sequence (P30556 1-359): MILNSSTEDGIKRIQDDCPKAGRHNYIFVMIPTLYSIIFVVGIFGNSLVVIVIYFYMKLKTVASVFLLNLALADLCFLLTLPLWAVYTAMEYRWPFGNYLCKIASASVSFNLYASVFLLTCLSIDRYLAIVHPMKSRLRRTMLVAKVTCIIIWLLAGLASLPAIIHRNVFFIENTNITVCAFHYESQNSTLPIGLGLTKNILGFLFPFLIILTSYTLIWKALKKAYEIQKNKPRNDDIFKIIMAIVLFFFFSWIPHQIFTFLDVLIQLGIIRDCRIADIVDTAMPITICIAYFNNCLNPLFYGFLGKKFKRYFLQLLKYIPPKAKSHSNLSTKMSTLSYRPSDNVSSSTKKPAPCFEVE
The test can be described thus: IP1 accumulation assay (IP1 G-protein assay), human AT1R. Conditions: for Emax: read-out: Span (relative to hAngII). How it is done:
(§1) A secondary measure of G protein coupling efficacy was also performed. IP3 is generated by activation of phospholipase C by Gα-q. IP3 is degraded to IP1, which can be forced to accumulate in cells by blocking degradation with lithium chloride. Thus we measured accumulation of IP1 to determine ligand efficacy for G protein activation.
(§2) IP1 accumulation generated by human and rat angiotensin 2 type 1 receptor (human AT1R and rat AT1aR, respectively) was measured with IP-One Tb kits purchased from Cisbio and used per the manufacturer's instructions. Clonal stably transfected cell lines expressing human AT1TR or rat AT1aR were used for all experiments.
(§3) For assays, 4,000-8,000 cells were seeded per well in 384-well small-volume microplates “HiBase” small-volume plate in volumes of 20 uL and allowed to grow overnight at 37° C. in 5% CO2. Cell growth media was then replaced with stimulation buffer supplied by Cisbio containing 50 mM lithium chloride. […] For agonist detection, peptides were then further diluted in stimulation buffer to add peptide to the cells to reach final concentrations ranging from 100 uM to 1 pM. Following addition of peptides, cells were incubated at 37° C. in 5% CO2 for 30 minutes and then lysed with 4 uL of pre-mixed HTRF IP-One reagents diluted per manufacturer's instructions (Cisbio). Microplates were incubated for 60-90 minutes at room temperature and then time-resolved fluorescence intensities were measured using a PHERAstar Plus microplate reader from BMG Labtech. IP1 accumulation was measured as change in ratio of time-resolved fluorescent intensities measured at 665 nm and 620 nm.

Test [2] has as its target T2, rat AT1aR (Rattus norvegicus, UniProt P25095).
T2 sequence (P25095 1-359): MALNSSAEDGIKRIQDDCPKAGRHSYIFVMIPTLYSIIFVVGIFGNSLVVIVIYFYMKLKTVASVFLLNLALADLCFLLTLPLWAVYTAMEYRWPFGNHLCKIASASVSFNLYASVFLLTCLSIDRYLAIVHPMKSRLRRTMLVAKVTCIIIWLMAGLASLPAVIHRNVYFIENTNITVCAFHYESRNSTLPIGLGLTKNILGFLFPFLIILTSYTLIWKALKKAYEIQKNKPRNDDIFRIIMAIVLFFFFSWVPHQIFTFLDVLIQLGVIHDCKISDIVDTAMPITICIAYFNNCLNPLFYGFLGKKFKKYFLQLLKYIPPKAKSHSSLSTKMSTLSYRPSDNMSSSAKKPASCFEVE
The test can be described thus: IP1 accumulation assay (IP1 G-protein assay), rat AT1aR. The following applies: for Emax: read-out: Span (relative to hAngII). The procedure:
as §1, §2, §3

The target of test [3] is T1, human AT1R. Briefly: beta-arrestin2 recruitment assay (PathHunter), human AT1R. The following applies: for Emax: 1 h, read-out: Span (relative to hAngII). A digest of the protocol:
(§4)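 Luminescence, in arbitrary units, read after 60 min room-temperature detection reflects β-arrestin-2 recruitment to human AT1R or rat AT1aR stably expressed in PathHunter HEK293 clones. Cells were exposed to peptides from 1 pM to 100 μM final in HEPES-buffered HBSS for 60 min at 37 °C.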
(In general: Recruitment of arrestin is a read-out of receptor activation apart from second messengers.)

Test [4] concerns the target T2, rat AT1aR. Briefly: beta-arrestin2 recruitment assay (PathHunter), rat AT1aR. Conditions: for Emax: 1 h, read-out: Span (relative to hAngII). A digest of the protocol: as §4

Where a SMILES comes first, the peptide text is derived from it. [ ]: non-standard residue; d: D form. Ac6c = NC1(C(=O)O)CCCCC1; Ac5c = NC1(C(=O)O)CCCC1; Sar = CNCC(=O)O Some results are limits rather than exact numbers.

In the case of `CC[C@H](C)[C@H](NC(=O)[C@@H]1CCCN1C(=O)[C@H](Cc1c[nH]cn1)NC(=O)C1(NC(=O)[C@H](Cc2ccc(O)cc2)NC(=O)[C@@H](NC(=O)[C@H](CCCNC(=N)N)NC(=O)CNC)C(C)C)CCCCC1)C(=O)O` [SEQ ID NO: 11, Sar-Arg-Val-Tyr-cyHex-His-Pro-Ile] (H-[Sar]RVY[Ac6c]HPI-OH), the EC50 is > 1.3 nM on human AT1R [1] (read-out: EC50); > 0.631 nM at human AT1R [1] (read-out: pEC50 (converted)); > 0.6 nM on rat AT1aR [2] (read-out: EC50); > 0.631 nM at rat AT1aR [2] (read-out: pEC50 (converted)); > 3.2 nM at human AT1R [3] (read-out: EC50); > 3.16 nM at human AT1R [3] (read-out: pEC50 (converted)). The EC50 on rat AT1aR [4] (read-out: EC50) is > 3.2 nM; on rat AT1aR [4] (read-out: pEC50 (converted)), > 3.16 nM. Moreover, the Emax at human AT1R [1] was < 103%; at human AT1R [3], < 101%; on rat AT1aR [4] it was < 105%.

For `CNCC(=O)N[C@@H](CCCNC(=N)N)C(=O)N[C@H](C(=O)N[C@@H](Cc1ccc(O)cc1)C(=O)N1CCC[C@H]1C(=O)N[C@@H](Cc1c[nH]cn1)C(=O)N1CCC[C@H]1C(=O)N[C@@H](CC(C)C)C(=O)O)C(C)C` [SEQ ID NO: 5, Sar-Arg-Val-Tyr-Pro-His-Pro-Leu] (H-[Sar]RVYPHPL-OH; N-terminus and C-terminus assumed), the Emax was < 103% on human AT1R [1], < 104% on rat AT1aR [2], < 101% at human AT1R [3] and < 105% on rat AT1aR [4].

On to `CNCC(=O)N[C@@H](CCCNC(=N)N)C(=O)N[C@H](C(=O)N[C@@H](Cc1ccc(O)cc1)C(=O)NC1(C(=O)N[C@@H](Cc2c[nH]cn2)C(=O)N2CCC[C@H]2C(=O)N[C@H](C)C(=O)O)CCCC1)C(C)C` [SEQ ID NO: 59, Sar-Arg-Val-Tyr-cyPen-His-Pro-D-Ala], for which the “EC50 (nM)” value at human AT1R [1] is given as “Inactive”. In addition, the pEC50 entry on human AT1R [1] is “Inactive”. In addition, the EC50 was > 0.6 nM at rat AT1aR [2] (read-out: EC50); > 0.631 nM on rat AT1aR [2] (read-out: pEC50 (converted)); > 3.2 nM at human AT1R [3] (read-out: EC50); > 3.16 nM on human AT1R [3] (read-out: pEC50 (converted)); > 3.2 nM on rat AT1aR [4] (read-out: EC50); > 3.16 nM on rat AT1aR [4] (read-out: pEC50 (converted)). In addition, the values for the Emax on rat AT1aR [2], at human AT1R [3] and at rat AT1aR [4] were < 104%, < 101% and < 105%, respectively.

`CNCC(=O)N[C@@H](CCCNC(=N)N)C(=O)N[C@H](C(=O)N[C@@H](Cc1ccc(O)cc1)C(=O)NC1(C(=O)N[C@@H](Cc2c[nH]cn2)C(=O)N2CCC[C@H]2C(=O)N[C@@H](CO)C(=O)O)CCCCC1)C(C)C` [SEQ ID NO: 15, Sar-Arg-Val-Tyr-cyHex-His-Pro-Ser] (H-[Sar]RVY[Ac6c]HPS-OH): the EC50 at human AT1R [1] (read-out: EC50) is > 1.3 nM; on human AT1R [1] (read-out: pEC50 (converted)) it was > 0.631 nM; on rat AT1aR [2] (read-out: EC50), > 0.6 nM; on rat AT1aR [2] (read-out: pEC50 (converted)), > 0.631 nM; on human AT1R [3] (read-out: EC50), > 3.2 nM; on human AT1R [3] (read-out: pEC50 (converted)), > 3.16 nM. The EC50 was > 3.2 nM on rat AT1aR [4] (read-out: EC50) and > 3.16 nM at rat AT1aR [4] (read-out: pEC50 (converted)). Further, the Emax at rat AT1aR [2] is < 104%; on human AT1R [3], < 101%; at rat AT1aR [4], < 105%.

As for `CNCC(=O)N[C@@H](CCCNC(=N)N)C(=O)N[C@H](C(=O)N[C@@H](Cc1ccc(O)cc1)C(=O)NC1(C(=O)N[C@@H](Cc2c[nH]cn2)C(=O)N2CCC[C@H]2C(=O)N[C@@H](Cc2ccccc2)C(=O)O)CCCC1)C(C)C` [SEQ ID NO: 24, Sar-Arg-Val-Tyr-cyPen-His-Pro-Phe] (H-[Sar]RVY[Ac5c]HPF-OH), the EC50 was < 1.3 nM on human AT1R [1] (read-out: EC50); > 0.631 nM on human AT1R [1] (read-out: pEC50 (converted)); > 0.6 nM on rat AT1aR [2] (read-out: EC50); > 0.631 nM on rat AT1aR [2] (read-out: pEC50 (converted)); > 3.2 nM on human AT1R [3] (read-out: EC50); > 3.16 nM on human AT1R [3] (read-out: pEC50 (converted)). Moreover, the results for the EC50 on rat AT1aR [4] (read-out: EC50) and on rat AT1aR [4] (read-out: pEC50 (converted)) were > 3.2 nM and > 3.16 nM, respectively. Moreover, the Emax on human AT1R [1] is > 103%; at rat AT1aR [2], < 104%; on human AT1R [3] it was > 101%; on rat AT1aR [4] it was < 105%.
